Converted amounts (≈) assume the structure as drawn.
Key:
recombinant PDE4B1 = molecular target: T1, recombinant PDE4B1 (Homo sapiens, UniProt Q07343); test: PDE4 inhibitory activity screening, PDE4B1 (HTRF, cAMP substrate); format: biochemical; details: 40 nM cAMP, 30 minutes, room temperature
T1 construct: host or cells: Sf9 insect cells
Protocol: (§1) Various concentrations of the test compounds were incubated with recombinant PDE4B1 or PDE4D2 (isolated from Sf9 cells), using 40 nM cAMP as enzyme substrate. Incubation time was set to 30 minutes. The reaction was carried out at room temperature. At the end of the incubation time, residual cAMP concentration was determined, using HTRF as detection method.
(§2) The IC50 values (concentration causing a half-maximal inhibition of control specific activity) and Hill coefficients (nH) were determined by non-linear regression analysis of the inhibition curves generated with mean replicate values using Hill equation curve fitting (Y=D+[(A−D)/(1+(C/C50)nH)], where Y=specific activity, D=minimum specific activity, A=maximum specific activity, C=compound concentration, C50=IC50 and nH=slope factor).

recombinant PDE4D2 = molecular target: T2, recombinant PDE4D2 (Homo sapiens, UniProt Q08499); test: PDE4 inhibitory activity screening, PDE4D2 (HTRF, cAMP substrate); format: biochemical; details: 40 nM cAMP, 30 minutes, room temperature
T2 construct: host or cells: Sf9 insect cells
Protocol: as §1, §2

[1] = Stability assay in human plasma; format: in vitro ADME; details: 1 μM compound
Protocol: Compounds are incubated at a concentration of 1 μM in rat (mice/rabbit/dog/rabbit) or human plasma. Samples are taken at fixed time points and the remnant of compound is determined by LC-MS/MS after protein precipitation. Half life of the compound is expressed in minutes.

[2] = Solubility in aqueous solution (PBS pH 7.4); format: physicochemical; details: phosphate buffer saline (PBS), pH 7.4, aqueous buffer, kinetic from dmso stock; PBS pH7.4, 24 h, room temperature, theoretical concentration 200 μM
Protocol: Using a 10 mM stock solution of each compound in 100% DMSO, dilutions were prepared to a theoretical concentration of 200 μM in both phosphate buffer saline (PBS), pH7.4 and in 100% DMSO (as reference). Solutions (triplicates) were incubated at room temperature for 24 h on a shaker at 100 rpm. The solutions were then centrifugated at 13000 rpm for 30 min and the supernatant was further diluted to 2 μM in methanol. The supernatant was then analyzed by LC-MSMS. The concentration of compound in PBS supernatant was determined by comparing the MS peak area with that of the reference solution in DMSO.

[3] = Membrane permeability, Pampa assay; details: for Papp at 5 h, 10 μM: PAMPA, pH 7.4
Protocol: The capacity of compounds of the invention to cross a lipophilic membrane was evaluated in a Pampa assay, using an assay plate containing structured layers of phospholipids supported on a PVDF filter (Benton Dickinson). […] Each compound was tested in triplicate and was prepared as a 10 μM solution in 10 mM PBS pH=7.4 buffer containing 2% DMSO. Compounds were dosed in the donor chamber of the assay plate and incubated for 5 hours, at room temperature. Additionally, an equilibrium solution plate containing 6 μM of test compound was prepared. Test compound concentration in donor and acceptor chamber and in the equilibrium plate was quantified using HPLC-MS/MS. The subsequently calculated permeability coefficients were reported as Papp.

[4] = Stability assay in aqueous humor; format: in vitro ADME; details: rabbit aqueous humor, 1 μM compound
Protocol: Compounds are incubated at a concentration of 1 μM in human or animal (e.g. rabbit) aqueous humor (AH). Samples are taken at fixed time points and the remnant of compound is determined by LC-MS/MS after protein precipitation.

T2 sequence (Q08499 303-809 limits assumed): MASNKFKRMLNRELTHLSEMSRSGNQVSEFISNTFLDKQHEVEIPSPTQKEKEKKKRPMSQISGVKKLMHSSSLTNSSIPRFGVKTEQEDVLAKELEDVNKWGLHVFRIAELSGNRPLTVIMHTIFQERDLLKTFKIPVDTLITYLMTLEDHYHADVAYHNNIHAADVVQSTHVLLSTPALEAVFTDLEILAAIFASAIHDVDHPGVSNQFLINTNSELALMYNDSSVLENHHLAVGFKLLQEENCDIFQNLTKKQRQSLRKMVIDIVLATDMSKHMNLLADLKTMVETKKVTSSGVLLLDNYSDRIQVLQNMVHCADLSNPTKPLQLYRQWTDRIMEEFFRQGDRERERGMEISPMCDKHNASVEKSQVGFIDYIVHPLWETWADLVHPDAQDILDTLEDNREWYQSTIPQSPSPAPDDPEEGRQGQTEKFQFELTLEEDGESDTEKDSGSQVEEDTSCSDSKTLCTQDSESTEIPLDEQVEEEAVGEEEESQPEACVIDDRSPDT
T1 sequence (Q07343 whole entry): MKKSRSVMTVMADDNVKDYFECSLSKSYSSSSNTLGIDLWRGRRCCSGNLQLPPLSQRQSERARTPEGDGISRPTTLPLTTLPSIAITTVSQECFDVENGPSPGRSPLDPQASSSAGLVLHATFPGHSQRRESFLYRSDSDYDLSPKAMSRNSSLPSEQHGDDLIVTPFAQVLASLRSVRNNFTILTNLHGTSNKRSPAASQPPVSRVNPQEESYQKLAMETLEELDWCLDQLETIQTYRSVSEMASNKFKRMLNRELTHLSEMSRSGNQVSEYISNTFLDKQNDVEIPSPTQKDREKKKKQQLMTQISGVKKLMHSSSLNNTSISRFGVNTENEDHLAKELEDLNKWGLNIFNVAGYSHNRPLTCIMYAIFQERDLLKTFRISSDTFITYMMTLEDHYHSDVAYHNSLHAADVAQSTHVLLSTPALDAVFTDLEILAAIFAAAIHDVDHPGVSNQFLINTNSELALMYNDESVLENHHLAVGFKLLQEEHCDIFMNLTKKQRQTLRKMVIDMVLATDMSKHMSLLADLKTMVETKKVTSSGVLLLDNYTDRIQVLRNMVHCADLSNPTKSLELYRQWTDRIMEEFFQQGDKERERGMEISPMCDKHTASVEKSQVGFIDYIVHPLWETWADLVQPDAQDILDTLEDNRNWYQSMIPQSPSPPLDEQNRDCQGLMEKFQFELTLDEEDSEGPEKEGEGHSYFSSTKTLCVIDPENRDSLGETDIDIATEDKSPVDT

| SMILES | IC50 (recombinant PDE4B1) | IC50 (recombinant PDE4D2) | half-life at 1 μM [1] | solubility at 24 h [2] | Papp at 5 h, 10 μM [3] | half-life at 1 μM [4] | Papp (Pampa; 10^−6 cm/s) ([3]; 10 μM in 10 mM PBS pH=7.4, 2% DMSO, 5 hours, room temperature) |
| --- | --- | --- | --- | --- | --- | --- | --- |
| O=C(CCCCOc1cc(C(=O)Nc2c(Cl)cncc2Cl)ccc1OC(F)F)NCCSC1CCOC1=O (stereo not shown) [Compound 10] | < 10 nM | < 10 nM | < 15 min | > 100 µM | 3.7 ×10⁻⁶ cm/s | – | – |
| CCOC(=O)c1cccc(Oc2cc(C(=O)Nc3c(Cl)cncc3Cl)ccc2OC(F)F)c1 [Compound 22, Ethyl 3-(5-((3,5-dichloropyridin-4-yl)carbamoyl)-2-(difluoromethoxy)phenoxy)benzoate] | 10 to 100 nM | 100 to 500 nM | – | – | – | – | – |
| CN(C)CCOC(=O)c1ccc(Oc2cc(C(=O)Nc3c(Cl)cncc3Cl)ccc2OC(F)F)cc1 [Compound 28] | 10 to 100 nM | 100 to 500 nM | 15 to 60 min | – | 7.9 ×10⁻⁶ cm/s | 60 to 120 min | – |
| O=C(Nc1c(Cl)cncc1Cl)c1ccc(OC(F)F)c(OCCCNC(CCO)C(=O)O)c1 (stereo not shown) [Met2] | > 500 nM | > 500 nM | – | – | 0.02 ×10⁻⁶ cm/s | – | – |
| CN(C)CCOC(=O)c1ccc(SCCCOc2cc(C(=O)Nc3c(Cl)cncc3Cl)ccc2OC(F)F)cc1 [Compound 26] | 10 to 100 nM | < 10 nM | < 15 min | – | – | – | – |
| COC(=O)Cc1cccc(NCCCOc2cc(C(=O)Nc3c(Cl)cncc3Cl)ccc2OC(F)F)c1 [Compound 16] | < 10 nM | 10 to 100 nM | < 15 min | < 10 µM | – | – | – |
| O=C(CCCCOc1cc(C(=O)Nc2c(Cl)cncc2Cl)ccc1OC(F)F)OCCN1CCCC1 [Compound 8] | < 10 nM | 10 to 100 nM | < 15 min | > 100 µM | 7.5 ×10⁻⁶ cm/s | – | – |
| CN(C)CCOC(=O)c1cccc(Oc2cc(C(=O)Nc3c(Cl)cncc3Cl)ccc2OC(F)F)c1 [Compound 30] | < 10 nM | 10 to 100 nM | < 15 min | – | 5.3 ×10⁻⁶ cm/s | – | – |
| O=C(CCCCOc1cc(C(=O)Nc2c(Cl)cncc2Cl)ccc1OC(F)F)OCc1ccccc1 [Compound 4] | 10 to 100 nM | 100 to 500 nM | – | < 10 µM | – | – | – |
| CN(C)CCOC(=O)CCCCOc1cc(C(=O)Nc2c(Cl)cncc2Cl)ccc1OC(F)F [Compound 9] | 10 to 100 nM | 10 to 100 nM | < 15 min | 10 to 100 µM (≈ 5.2 to 52 µg/mL) | 3 ×10⁻⁶ cm/s | – | – |
| O=C(Nc1c(Cl)cncc1Cl)c1ccc(OC(F)F)c(OCC2CC2)c1 [Roflumilast, reference compound] | – | – | – | < 10 µM | – | – | – |
| O=C(Nc1c(Cl)cncc1Cl)c1ccc(OC(F)F)c(OCCCSc2cccc(C(=O)OCCO)c2)c1 [Compound 23] | 10 to 100 nM | 10 to 100 nM | – | – | – | – | – |
| CCCOC(=O)CCCCOc1cc(C(=O)Nc2c(Cl)cncc2Cl)ccc1OC(F)F [Compound 1, propyl 5-[5-{[(3,5-dichloropyridin-4-yl)amino]carbonyl}-2-(difluoromethoxy)phenoxy]pentanoate] | 10 to 100 nM | 10 to 100 nM | – | 10 to 100 µM (≈ 4.91 to 49.1 µg/mL) | – | – | – |
| COC(=O)c1cccc(SCCCOc2cc(C(=O)Nc3c(Cl)cncc3Cl)ccc2OC(F)F)c1 [Compound 17] | 100 to 500 nM | 100 to 500 nM | – | < 10 µM | – | – | – |
| COC(=O)c1ccc(SCCCOc2cc(C(=O)Nc3c(Cl)cncc3Cl)ccc2OC(F)F)cc1 [Compound 18] | 100 to 500 nM | 100 to 500 nM | – | – | – | – | – |
| O=C(CCCCOc1cc(C(=O)Nc2c(Cl)cncc2Cl)ccc1OC(F)F)Oc1ccccc1F [Compound 3] | 10 to 100 nM | 100 to 500 nM | < 15 min | < 10 µM | – | – | – |
| O=C(O)CNCCCOc1cc(C(=O)Nc2c(Cl)cncc2Cl)ccc1OC(F)F [Met3, 2-[(3-{5-[(3,5-dichloropyridin-4-yl)carbamoyl]-2-(difluoromethoxy)phenoxy}propyl)amino]acetic acid] | > 500 nM | > 500 nM | – | – | 0.02 ×10⁻⁶ cm/s | – | – |
| O=C(Nc1c(Cl)cncc1Cl)c1ccc(OC(F)F)c(Oc2ccc(C(=O)OCCO)cc2)c1 [Compound 27] | 10 to 100 nM | 10 to 100 nM | – | – | 2.3 ×10⁻⁶ cm/s | > 120 min | – |
| O=C(Nc1c(Cl)cncc1Cl)c1ccc(OC(F)F)c(OCCCSc2ccc(C(=O)OCCO)cc2)c1 [Compound 25] | 10 to 100 nM | 10 to 100 nM | – | – | – | – | – |
| O=C(CCCCOc1cc(C(=O)Nc2c(Cl)cncc2Cl)ccc1OC(F)F)Oc1ccccc1 [Compound 2, phenyl 5-[5-{[(3,5-dichloropyridin-4-yl)amino]carbonyl}-2-(difluoromethoxy)phenoxy]pentanoate] | 10 to 100 nM | 10 to 100 nM | < 15 min | 10 to 100 µM (≈ 5.25 to 52.5 µg/mL) | – | – | – |
| COC(=O)CNCCCOc1cc(C(=O)Nc2c(Cl)cncc2Cl)ccc1OC(F)F [Compound 15] | 10 to 100 nM | 10 to 100 nM | 15 to 60 min | > 100 µM | 5.6 ×10⁻⁶ cm/s | 60 to 120 min | – |
| COCCOC(=O)CCCCOc1cc(C(=O)Nc2c(Cl)cncc2Cl)ccc1OC(F)F [Compound 7] | < 10 nM | 10 to 100 nM | 15 to 60 min | > 100 µM | 9.2 ×10⁻⁶ cm/s | – | – |
| O=C(Nc1c(Cl)cncc1Cl)c1ccc(OC(F)F)c(OCCCCNC(CCO)C(=O)O)c1 (stereo not shown) [Met1] | 100 to 500 nM | 100 to 500 nM | – | – | 0.03 ×10⁻⁶ cm/s | – | – |
| O=C(CCCCOc1cc(C(=O)Nc2c(Cl)cncc2Cl)ccc1OC(F)F)OCC1CCCO1 (stereo not shown) [Compound 6] | < 10 nM | 10 to 100 nM | 15 to 60 min | – | – | – | – |
| CN(C)CCOC(=O)c1cccc(SCCCOc2cc(C(=O)Nc3c(Cl)cncc3Cl)ccc2OC(F)F)c1 [Compound 24] | 10 to 100 nM | 10 to 100 nM | < 15 min | – | – | – | – |
| COC(=O)c1ccc(Oc2cc(C(=O)Nc3c(Cl)cncc3Cl)ccc2OC(F)F)cc1 [Compound 21, Methyl 4-(5-((3,5-dichloropyridin-4-yl)carbamoyl)-2-(difluoromethoxy)phenoxy)benzoate] | 10 to 100 nM | > 500 nM | – | 10 to 100 µM (≈ 4.83 to 48.3 µg/mL) | – | > 120 min | – |
| O=C(CCCCOc1cc(C(=O)Nc2c(Cl)cncc2Cl)ccc1OC(F)F)OCCN1CCOCC1 [Compound 5] | < 10 nM | < 10 nM | 15 to 60 min | > 100 µM | – | – | – |
| O=C(Nc1c(Cl)cncc1Cl)c1ccc(OC(F)F)c(Oc2cccc(C(=O)OCCO)c2)c1 [Compound 29] | < 10 nM | 10 to 100 nM | – | – | 5.1 ×10⁻⁶ cm/s | – | – |
| O=C(Nc1c(Cl)cncc1Cl)c1ccc(OC(F)F)c(OCCCSC2CCOC2=O)c1 (stereo not shown) [Compound 13] | < 10 nM | < 10 nM | < 15 min | 10 to 100 µM (≈ 5.07 to 50.7 µg/mL) | – | – | 6.6 10^−6 cm/s |

Reference: patent publication US9126933B2, “Soft PDE4 inhibitors” (Amakem NV, priority 2011, dated 2015)
